Test results published in patent US20130310379A1, “MODULATORS OF METHYL MODIFYING ENZYMES, COMPOSITIONS AND USES THEREOF” (CONSTELLATION PHARMACEUTICALS, priority 2010, published 2013).

Biological target: EZH2 (Homo sapiens, UniProt Q15910)
Assay: EZH2 assay: rPRC2 with biotinylated oligonucleosome substrates and 3H SAM, FlashPlate scintillation counting, IC50
Format: biochemical
Settings: not given
Method in brief: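 rPRC2 (2 nM EZH2) pre-incubated 20 min with compound (80 to 0.16 uM, ten 2-fold steps), then 60 min reaction with 0.2 uM 3H SAM, 0.2 uM biotinylated oligonucleosomes, 3.6 uM H3K27me3 peptide in Tris pH 8.5. SAH/EDTA quench; 4-parameter IC50 fit.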

Chain of EZH2 (Q15910 whole entry): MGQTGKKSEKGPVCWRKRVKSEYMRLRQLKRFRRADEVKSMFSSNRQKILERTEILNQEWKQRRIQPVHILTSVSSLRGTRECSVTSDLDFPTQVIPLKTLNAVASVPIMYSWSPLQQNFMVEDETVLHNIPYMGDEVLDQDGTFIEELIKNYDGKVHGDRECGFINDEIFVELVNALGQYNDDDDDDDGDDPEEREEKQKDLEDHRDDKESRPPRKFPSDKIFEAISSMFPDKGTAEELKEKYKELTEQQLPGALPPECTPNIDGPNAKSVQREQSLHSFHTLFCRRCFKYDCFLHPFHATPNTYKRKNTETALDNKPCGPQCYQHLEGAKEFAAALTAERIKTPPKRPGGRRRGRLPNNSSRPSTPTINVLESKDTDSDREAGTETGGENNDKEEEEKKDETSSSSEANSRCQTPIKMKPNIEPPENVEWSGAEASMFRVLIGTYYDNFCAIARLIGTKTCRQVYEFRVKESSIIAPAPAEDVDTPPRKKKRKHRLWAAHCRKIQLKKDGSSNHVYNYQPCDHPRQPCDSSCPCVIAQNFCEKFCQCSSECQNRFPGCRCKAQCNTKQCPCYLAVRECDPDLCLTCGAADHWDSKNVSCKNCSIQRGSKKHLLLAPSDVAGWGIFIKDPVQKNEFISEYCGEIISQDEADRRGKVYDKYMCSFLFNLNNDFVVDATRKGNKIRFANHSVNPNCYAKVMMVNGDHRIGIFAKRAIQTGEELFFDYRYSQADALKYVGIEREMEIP
Chain of EZH2 (O75530 whole entry partner): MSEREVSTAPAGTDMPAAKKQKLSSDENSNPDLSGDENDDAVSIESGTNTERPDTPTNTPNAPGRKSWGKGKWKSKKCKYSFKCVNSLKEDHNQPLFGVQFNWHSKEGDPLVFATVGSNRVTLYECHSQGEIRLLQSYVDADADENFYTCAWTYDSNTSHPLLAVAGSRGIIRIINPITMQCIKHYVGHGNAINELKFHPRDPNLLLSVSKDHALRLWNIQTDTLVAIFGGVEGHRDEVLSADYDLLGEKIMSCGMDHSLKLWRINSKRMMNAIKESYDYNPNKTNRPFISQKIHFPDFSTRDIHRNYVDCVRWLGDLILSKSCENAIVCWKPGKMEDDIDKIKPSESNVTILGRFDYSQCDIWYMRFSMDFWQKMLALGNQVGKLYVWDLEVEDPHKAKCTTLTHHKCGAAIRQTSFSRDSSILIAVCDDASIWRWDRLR
Chain of EZH2 (Q15022 whole entry partner): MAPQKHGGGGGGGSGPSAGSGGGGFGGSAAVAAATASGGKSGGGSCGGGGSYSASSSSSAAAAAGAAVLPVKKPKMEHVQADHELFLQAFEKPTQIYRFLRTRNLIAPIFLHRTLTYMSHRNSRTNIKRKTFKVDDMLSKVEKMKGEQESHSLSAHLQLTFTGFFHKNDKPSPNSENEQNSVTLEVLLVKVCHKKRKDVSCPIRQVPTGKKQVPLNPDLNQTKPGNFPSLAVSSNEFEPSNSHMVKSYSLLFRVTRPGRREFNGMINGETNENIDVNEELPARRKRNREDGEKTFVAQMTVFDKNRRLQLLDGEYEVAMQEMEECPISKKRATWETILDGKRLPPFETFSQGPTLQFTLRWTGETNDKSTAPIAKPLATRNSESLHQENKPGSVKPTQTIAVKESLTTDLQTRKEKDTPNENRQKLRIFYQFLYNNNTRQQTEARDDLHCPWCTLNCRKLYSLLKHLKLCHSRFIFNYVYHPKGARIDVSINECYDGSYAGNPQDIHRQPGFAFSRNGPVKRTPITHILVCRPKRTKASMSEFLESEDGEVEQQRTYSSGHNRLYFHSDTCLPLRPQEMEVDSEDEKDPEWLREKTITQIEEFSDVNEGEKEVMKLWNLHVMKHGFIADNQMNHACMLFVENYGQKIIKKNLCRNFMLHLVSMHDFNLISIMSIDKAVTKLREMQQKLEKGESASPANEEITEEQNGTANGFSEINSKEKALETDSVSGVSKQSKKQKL

Work on `CC1(C)CC(NC(=O)c2ccc(Oc3ccccc3C#N)c(Cl)c2)CC(C)(C)N1[O]` [Compound I-402] yielded an IC50 of over 80 µM.

Same assay, conditions: rPRC2, biotinylated oligonucleosome substrates, 3H SAM; read-out: EZH2 IC50

Compared with `CC1(C)CC(NC(=O)c2ccc(Oc3nccc4ccccc34)c(Cl)c2)CC(C)(C)N1` [Compound I-242], `CC1(C)CC(NC(=O)c2ccc(Oc3ccccc3-c3ccsc3)c(Cl)c2)CC(C)(C)N1` [Compound I-252] is lower in IC50: 20 to 80 µM for the first, under 5 µM for the second.

`CC1(C)CC(NC(=O)c2ccc(Oc3cccc(CCC(N)=O)c3C#N)c(Cl)c2)CC(C)(C)N1` [Compound I-501] and `Cc1cccc(Oc2ccc(C(=O)NC3CC(C)(C)NC(C)(C)C3)cc2Cl)c1C#N` [Compound I-309] cannot be ordered by IC50: under 5 µM for the first, under 5 µM for the second.

`CC1(C)CC(NC(=O)c2ccc(Oc3cccc4c3C(=O)NCC4)c(Cl)c2)CC(C)(C)N1` [Compound I-525] and `CC1(C)CC(NC(=O)c2ccc(Oc3cccc4nccn34)c(Cl)c2)CC(C)(C)N1` [Compound I-372] fall in the same range of IC50: 5 to 20 µM for the first, 5 to 20 µM for the second.

`CC1(C)CC(NC(=O)c2ccc(CSc3ccccc3)cc2)CC(C)(C)N1` [Compound I-83] and `CC1(C)CC(NC(=O)c2ccc(Cc3ccccc3)cc2)CC(C)(C)N1` [Compound I-127, 4-Benzyl-N-(2,2,6,6-tetramethylpiperidin-4-yl)benzamide] cannot be ordered by IC50: over 80 µM for the first, over 80 µM for the second.

First: CC(=O)Nc1cccc(Oc2ccc(C(=O)NC3CC(C)(C)NC(C)(C)C3)cc2)c1 [Compound I-26, 4-(3-Acetamidophenoxy)-N-(2,2,6,6-tetramethylpiperidin-4-yl)benzamide]
Second: CNCc1cccc(Oc2ccc(C(=O)NC3CC(C)(C)NC(C)(C)C3)cc2)c1 [Compound I-236]
The IC50 of the first is higher: 20 to 80 µM for the first, 5 to 20 µM for the second. The second is the more potent here.

`CC1(C)CC(NC(=O)c2ccc(COc3ccnc(Cl)c3)cc2)CC(C)(C)N1` [Compound I-66] and `Cc1ccc(OCc2ccc(C(=O)NC3CC(C)(C)NC(C)(C)C3)cc2)cc1` [Compound I-22] fall in the same range of IC50: 20 to 80 µM for the first, 20 to 80 µM for the second.

First: COc1ccccc1Oc1ccc(C(=O)NC2CC(C)(C)NC(C)(C)C2)cc1 [Compound I-57]
Second: CC1(C)CC(NC(=O)c2ccc(Oc3ccccc3Br)cc2)CC(C)(C)N1 [Compound I-16]
The IC50 of the first is higher: 20 to 80 µM for the first, 5 to 20 µM for the second.

`CNC(=O)Cn1cc(-c2cccc(Oc3ccc(C(=O)NC4CC(C)(C)NC(C)(C)C4)cc3Cl)c2C#N)cn1` [Compound I-387] and `Cc1cncc(-c2cccc(Oc3ccc(C(=O)NC4CC(C)(C)NC(C)(C)C4)cc3Cl)c2C#N)c1` [Compound I-360] cannot be ordered by IC50: under 5 µM for the first, under 5 µM for the second.

`CC1(C)CC(NC(=O)c2ccc(Oc3ccccc3C(N)=O)c(Br)c2)CC(C)(C)N1` [Compound I-388] and `CC1(C)CC(NC(=O)c2ccc(Oc3ccccc3)c(Br)c2)CC(C)(C)N1` [Compound I-144] fall in the same range of IC50: 5 to 20 µM for the first, 5 to 20 µM for the second.

`CC(C)NCc1cccc(Oc2ccc(C(=O)NC3CC(C)(C)NC(C)(C)C3)cc2Cl)c1` [Compound I-422] and `CC1(C)CC(NC(=O)c2ccc(Oc3cccc(C(C)(C)C#N)c3)c(Cl)c2)CC(C)(C)N1` [Compound I-462] fall in the same range of IC50: 20 to 80 µM for the first, 20 to 80 µM for the second.

Compared with `N#Cc1ccccc1Oc1ccc(C(=O)NC2CCN(c3cccnc3)CC2)cc1Cl` [Compound I-368], `CC1(C)CC(NC(=O)c2ccc(Oc3ccccc3C#N)c(-c3cccnc3)c2)CC(C)(C)N1` [Compound I-211] is lower in IC50: over 80 µM for the first, under 5 µM for the second.

`CC1(C)CC(NC(=O)c2ccc(Oc3ccccc3CO)cc2)CC(C)(C)N1` [Compound I-179] and `CC1(C)CC(NC(=O)c2ccc(Oc3ccccc3Cl)cc2)CC(C)(C)N1` [Compound I-28] fall in the same range of IC50: 20 to 80 µM for the first, 20 to 80 µM for the second.

`COc1ncccc1-c1cccc(OCc2ccc(C(=O)NC3CC(C)(C)NC(C)(C)C3)cc2)c1` [Compound I-55] and `CC1(C)CC(NC(=O)c2ccc(COc3cccc(-c4cncnc4)c3)cc2)CC(C)(C)N1` [Compound I-32] fall in the same range of IC50: 20 to 80 µM for the first, 20 to 80 µM for the second.

`Cc1ccc(Oc2ccc(C(=O)NC3CC(C)(C)NC(C)(C)C3)cc2)cc1C` [Compound I-87] and `Cc1cccc(C)c1Oc1ccc(C(=O)NC2CC(C)(C)NC(C)(C)C2)cc1` [Compound I-69] cannot be ordered by IC50: over 80 µM for the first, over 80 µM for the second.

`CC1(C)CC(NC(=O)c2ccc(Oc3ccncc3)cc2)CC(C)(C)N1` [Compound I-319] and `CC1(C)CC(NC(=O)c2ccc(Oc3ccc(Br)cc3)cc2)CC(C)(C)N1` [Compound I-93] cannot be ordered by IC50: over 80 µM for the first, over 80 µM for the second.

`CC(c1ccccc1C#N)N1CCN(C(=O)NC2CC(C)(C)NC(C)(C)C2)CC1` (stereo not drawn) [Compound I-454] and `CC1(C)CC(NC(=O)N2CCN(Cc3ccccc3C#N)C(=O)C2)CC(C)(C)N1` [Compound I-448] cannot be ordered by IC50: over 80 µM for the first, over 80 µM for the second.

`CN1C2CCC1CC(NC(=O)c1ccc(Oc3ccccc3)cc1)C2` (stereo not drawn) [Compound I-114] and `CC(C)CNC(=O)c1ccc(Oc2ccccc2)cc1` [Compound I-139] cannot be ordered by IC50: over 80 µM for the first, over 80 µM for the second.

`CC1(C)CC(NC(=O)c2ccc(Oc3ccccc3C#N)c(COc3ccccc3)c2)CC(C)(C)N1` [Compound I-239] and `CC1(C)CC(NC(=O)c2ccc(Oc3ccccc3C#N)cc2)CC(C)(C)N1` [Compound I-6] cannot be ordered by IC50: under 5 µM for the first, under 5 µM for the second.

Compared with `Cc1ccc(CO)cc1Oc1ccc(C(=O)NC2CC(C)(C)NC(C)(C)C2)cc1` [Compound I-43], `CC1(C)CC(NC(=O)c2ccc(Oc3cccc4c3CCCC4)cc2)CC(C)(C)N1` [Compound I-181] is lower in IC50: 20 to 80 µM for the first, 5 to 20 µM for the second. The second is the more potent here.

`CN(C(=O)c1ccc(Oc2ccccc2)cc1)C1CCNCC1` [Compound I-125, N-Methyl-4-phenoxy-N-(piperidin-4-yl)benzamide 2,2,2-trifluoroacetate] and `O=C(N[C@H]1CCN(Cc2ccccc2)C1)c1ccc(Oc2ccccc2)cc1` (stereo in doubt) [Compound I-101] cannot be ordered by IC50: over 80 µM for the first, over 80 µM for the second.

Compared with `CC1(C)CC(NC(=O)c2ccc(-c3ccc4cnccc4c3)c(Cl)c2)CC(C)(C)N1` [Compound I-376], `CC1(C)CC(NC(=O)c2ccc(-n3cnc4ccccc43)c(Cl)c2)CC(C)(C)N1` [Compound I-303] is higher in IC50: 20 to 80 µM for the first, over 80 µM for the second.

`Cc1nnc2n1-c1ccccc1C(c1ccc(C(=O)NC3CC(C)(C)NC(C)(C)C3)cc1)=NC2` [Compound I-488] and `CC(c1ccccc1)c1ccc(C(=O)NC2CC(C)(C)NC(C)(C)C2)cc1` (stereo not drawn) [Compound I-426] cannot be ordered by IC50: over 80 µM for the first, over 80 µM for the second.

First: CC1(C)CC(NC(=O)c2ccc(Oc3ccccc3)cc2Cl)CC(C)(C)N1 [Compound I-175]
Second: CC1(C)CC(NC(=O)c2ccc(Oc3ccccc3C#N)cn2)CC(C)(C)N1 [Compound I-205]
The IC50 of the first is higher: over 80 µM for the first, 5 to 20 µM for the second. The second is the more potent here.

`CC1(C)CC(NC(C(=O)O)c2ccc(Oc3ccccc3C#N)c(Cl)c2)CC(C)(C)N1` (stereo not drawn) [Compound I-483] and `CCN(C(=O)c1ccc(Oc2ccccc2C#N)c(Cl)c1)C1CC(C)(C)NC(C)(C)C1` [Compound I-341] cannot be ordered by IC50: over 80 µM for the first, over 80 µM for the second.

`CC1(C)CC(NC(=O)c2ccc([S+]([O-])c3ccccc3)cc2)CC(C)(C)N1` (stereo not drawn) [Compound I-355] and `CC1(C)CC(NC(=O)c2ccc(Oc3ncccc3C(N)=O)cc2)CC(C)(C)N1` [Compound I-103, 2-(4-(2,2,6,6-Tetramethylpiperidin-4-ylcarbamoyl)phenoxy)nicotinamide] cannot be ordered by IC50: over 80 µM for the first, over 80 µM for the second.

Compared with `CC1(C)CC(NC(=O)c2ccc(Oc3cccnc3C#N)c(Br)c2)CC(C)(C)N1` [Compound I-219], `CC1(C)CC(NC(=O)c2ccc(-n3cccn3)c(Cl)c2)CC(C)(C)N1` [Compound I-496] is higher in IC50: under 5 µM for the first, over 80 µM for the second. The first is the more potent here.

Work on `CC1CC(NC(=O)c2ccc(Oc3cccc(-c4ccnnc4)c3C#N)c(Cl)c2)CC(C)(C)N1` (stereo not drawn) [Compound I-478] yielded an IC50 of under 5 µM.
